From patent US20080200492A1, “METHODS FOR THE TREATMENT OF ALCOHOL ABUSE, ADDICTION AND DEPENDENCY” (priority 2006, published 2008)

Experiments:
alcohol preferring rats [1] = assay: Alcohol Preferring Rats, Study A: Chronic Administration (14 days); assay type: in vivo, rat; conditions: 20 mg/kg once a day, gavage
Protocol: (§1) Adult male selectively-bred alcohol preferring rats were used in this study. The selectively bred alcohol preferring rats are widely used to study the suppressant effects of compounds on voluntary alcohol intake (Faren et al. 2000; Rezvani et al, 1990, 1991, 1992a, 1992b, 1999, 2000, 2002; 2003; Murphy et al, 1988; Overstreet et al., 1992, 1999; Li and McBride, 1995).
(§2) The rats were housed individually under a constant room temperature of 22±1° C. and 12:12 light-dark cycle (7:00-19:00, dark). Animals were fed Agway Prolab Rat/Mouse/Hamster 3000 formula and water ad libitum.
(§3) Alcohol intake was determined using a standard two-bottle choice method (Murphy et al. 1988; McBride et al. 1990; Rezvani et al. 1990, 1991, 1993, 1995, 1997, Rezvani et al., 2007a,b; Rezvani and Grady, 1994). Animals were first given free access to water in a graduated Richter tube for 1 day. Next, they were given access to only a solution of 10% (v/v) ethanol for 3 consecutive days. During this period the animals became accustomed to drinking from Richter tubes and to the taste and pharmacological effects of alcohol. Thereafter, the animals were given free access to both water and a solution of 10% alcohol for 4 consecutive weeks and throughout of the study. The animals continued to have free access to food. Water and alcohol intake were recorded at 6 and 24 hour.
After establishment of a reliable baseline for alcohol, and water intake, the animals were randomly assigned to a treatment regimen. The animals were administered once a day, via gavage, either vehicle (0.5% methylcellulose) or compound of formula (I-A) (at 30 mg/kg) or naltrexone (at 20 mg/kg) for 14 consecutive days. A group of 6-7 animals was used for each treatment. Alcohol and water intake was recorded at 6 hrs and 24 hrs after administration.
The results are presented as a means ±SEM. Alcohol intake (g/kg) was calculated by multiplying the volume of alcohol consumed in ml by 10% and 0.7893 (ethanol density)/body weight in kg. Alcohol preference, expressed as percentage was calculated as (volume of alcohol consumed in ml/total fluid intake in ml)×100 (Rezvani and Grady, 1994; Rezvani et al., 2007a). Statistical differences between drug-treated and control groups was determined by using ANOVA and Tukey Student's t test for multiple comparison.
The results from Study A provide a measure of whether or not the animals develop tolerance to the suppressant effects of the test compound following a chronic treatment. In Tables 5-8 below, the abbreviation “(I-A)” stands for the compound of formula (I-A), the abbreviation “Naltx” stands for naltrexone, and the abbreviation “EtOH” stands for ethanol.

alcohol preferring rats [2] = assay: Alcohol Preferring Rats, Study B: Post-Deprivation Effect; assay type: in vivo, rat; conditions: 20 mg/kg, 45 min before re-exposure to alcohol after 72 hours deprivation
Protocol: as §1, §2, §3
Following Study A, the rats were maintained on alcohol for 15 days without drug. On day 16 post-gavage, rats were put on food and water only for 72 hours. On the next day, 45 min before re-exposure to alcohol, the rats were treated with vehicle (0.5% methylcellulose), naltrexone (at 20 mg/kg) or compound of formula (I-A) (at 30-mg/kg). Alcohol intake was then measured at 1, 3, 6 and 24 hr after exposure.
The results are presented as a means. Alcohol intake (g/kg) was calculated by multiplying the volume of alcohol consumed in ml by 10% and 0.7893 (ethanol density)/body weight in kg. Alcohol preference, expressed as percentage was calculated as (volume of alcohol consumed in ml/total fluid intake in ml)×100 (Rezvani and Grady, 1994; Rezvani et al., 2007a). Statistical differences between drug-treated and control groups was determined by using ANOVA and Tukey Student's t test for multiple comparison.
The results from Study B provide a measure of the effectiveness of the test compound to suppress post-deprivation-induced craving for alcohol.

O=C1CC[C@@]2(O)[C@H]3Cc4ccc(O)c5c4[C@@]2(CCN3CC2CC2)[C@H]1O5 [Naltrexone, naltrexone, reference compound]
Alcohol Preference (alcohol preferring rats [1]; Day 1, 6 Hour Intake): 64 % EtOH
Alcohol Preference (alcohol preferring rats [1]; Day 1, 24 Hour Intake): 65 % EtOH
Alcohol Preference (alcohol preferring rats [1]; Day 2, 6 Hour Intake): 67 % EtOH
Alcohol Preference (alcohol preferring rats [1]; Day 2, 24 Hour Intake): 68 % EtOH
Alcohol Preference (alcohol preferring rats [1]; Day 3, 6 Hour Intake): 70 % EtOH
Alcohol Preference (alcohol preferring rats [1]; Day 3, 24 Hour Intake): 68 % EtOH
Alcohol Preference (alcohol preferring rats [1]; Day 4, 6 Hour Intake): 80 % EtOH
Alcohol Preference (alcohol preferring rats [1]; Day 4, 24 Hour Intake): 77 % EtOH
Alcohol Preference (alcohol preferring rats [1]; Day 5, 6 Hour Intake): 81 % EtOH
Alcohol Preference (alcohol preferring rats [1]; Day 5, 24 Hour Intake): 79 % EtOH
Alcohol Preference (alcohol preferring rats [1]; Day 6, 6 Hour Intake): 86 % EtOH
Alcohol Preference (alcohol preferring rats [1]; Day 6, 24 Hour Intake): 72 % EtOH
Alcohol Preference (alcohol preferring rats [1]; Day 7, 6 Hour Intake): 88 % EtOH
Alcohol Preference (alcohol preferring rats [1]; Day 7, 24 Hour Intake): 84 % EtOH
Alcohol Preference (alcohol preferring rats [1]; Day 8, 6 Hour Intake): 88 % EtOH
Alcohol Preference (alcohol preferring rats [1]; Day 8, 24 Hour Intake): 85 % EtOH
Alcohol Preference (alcohol preferring rats [1]; Day 9, 6 Hour Intake): 89 % EtOH
Alcohol Preference (alcohol preferring rats [1]; Day 9, 24 Hour Intake): 89 % EtOH
Alcohol Preference (alcohol preferring rats [1]; Day 10, 6 Hour Intake): 91 % EtOH
Alcohol Preference (alcohol preferring rats [1]; Day 10, 24 Hour Intake): 85 % EtOH
Alcohol Preference (alcohol preferring rats [1]; Day 11, 6 Hour Intake): 99 % EtOH
Alcohol Preference (alcohol preferring rats [1]; Day 11, 24 Hour Intake): 99 % EtOH
Alcohol Preference (alcohol preferring rats [1]; Day 12, 6 Hour Intake): 95 % EtOH
Alcohol Preference (alcohol preferring rats [1]; Day 12, 24 Hour Intake): 97 % EtOH
Alcohol Preference (alcohol preferring rats [1]; Day 13, 6 Hour Intake): 90 % EtOH
Alcohol Preference (alcohol preferring rats [1]; Day 13, 24 Hour Intake): 95 % EtOH
Alcohol Preference (alcohol preferring rats [1]; Day 14, 6 Hour Intake): 92 % EtOH
Alcohol Preference (alcohol preferring rats [1]; Day 14, 24 Hour Intake): 89 % EtOH
% EtOH (alcohol preferring rats [2]; 1 Hour Post Dosing): 95%
Alcohol (alcohol preferring rats [2]; 1 Hour Post Dosing): 0.48 g/kg
% EtOH (alcohol preferring rats [2]; 3 Hours Post Dosing): 94%
Alcohol (alcohol preferring rats [2]; 3 Hours Post Dosing): 1.15 g/kg
% EtOH (alcohol preferring rats [2]; 6 Hours Post Dosing): 87%
Alcohol (alcohol preferring rats [2]; 6 Hours Post Dosing): 2.35 g/kg
% EtOH (alcohol preferring rats [2]; 24 Hours Post Dosing): 87%
Alcohol (alcohol preferring rats [2]; 24 Hours Post Dosing): 6.47 g/kg
